This is an account of results in the NIST ThermoML archive (doi:10.1021/je300152t).

Numbers after ± are expanded uncertainties.

For series [1] the following is noted: Crystal; DTA.
The nature of series [2]: Molar enthalpy of transition or fusion. The following applies: Crystal; DSC.

Consider `O=C(Nc1ccccc1)c1ccccc1` [N-phenylbenzamide], for which, in series [1], the Normal melting temperature was found to be 162 ± 1 °C. Moreover, the “Molar enthalpy of transition or fusion” value in series [2] turned out to be 31.2 ± 1.5 kJ/mol.

As to `CCOc1cccc(NC(C)=O)c1` [N-(3-ethoxyphenyl)acetamide], the Normal melting temperature in series [1] was 95 ± 0.9 °C. The “Molar enthalpy of transition or fusion” value in series [2] was 28.9 ± 1 kJ/mol.

For the molecule `CC(=O)Nc1ccc(C)cc1` [1-acetamido-4-methylbenzene], the Normal melting temperature in series [1] is 148.2 ± 0.7 °C. Further, the “Molar enthalpy of transition or fusion” value in series [2] amounted to 29.4 ± 0.7 kJ/mol.

As to `CC(=O)Nc1ccccc1` [N-phenylethanamide], the Normal melting temperature in series [1] worked out at 113.8 ± 0.4 °C. Besides, the “Molar enthalpy of transition or fusion” value in series [2] amounted to 22.1 ± 0.5 kJ/mol.

As for `COc1ccc(NC(C)=O)cc1` [N-(4-methoxyphenyl)ethanamide], the Normal melting temperature in series [1] amounted to 125.1 ± 2.4 °C. Further, in series [2], the “Molar enthalpy of transition or fusion” value was found to be 25.4 ± 0.8 kJ/mol.

On to `CCOc1ccc(NC(C)=O)cc1` [N-(4-ethoxyphenyl)ethanamide], for which, in series [1], the Normal melting temperature is 134 ± 1 °C. In series [2], the “Molar enthalpy of transition or fusion” value was found to be 32 ± 0.7 kJ/mol.
